ChEMBL document CHEMBL5465560, “Selectivity Literature for EUbOPEN Chemogenomic Library” (2024)

Key:
[1] = molecular target: Tyrosine-protein kinase JAK1 (Homo sapiens, UniProt P23458); assay: Selectivity interaction (KinomeScan (DiscoverX)) EUB0000666a JAK1; conditions: at 10 µM
[2] = molecular target: T1, Serine/threonine-protein kinase LATS1 (Homo sapiens) (UniProt O95835); assay: Selectivity interaction (KinomeScan (DiscoverX)) EUB0000666a LATS1; conditions: at 10 µM
T1 sequence (whole entry): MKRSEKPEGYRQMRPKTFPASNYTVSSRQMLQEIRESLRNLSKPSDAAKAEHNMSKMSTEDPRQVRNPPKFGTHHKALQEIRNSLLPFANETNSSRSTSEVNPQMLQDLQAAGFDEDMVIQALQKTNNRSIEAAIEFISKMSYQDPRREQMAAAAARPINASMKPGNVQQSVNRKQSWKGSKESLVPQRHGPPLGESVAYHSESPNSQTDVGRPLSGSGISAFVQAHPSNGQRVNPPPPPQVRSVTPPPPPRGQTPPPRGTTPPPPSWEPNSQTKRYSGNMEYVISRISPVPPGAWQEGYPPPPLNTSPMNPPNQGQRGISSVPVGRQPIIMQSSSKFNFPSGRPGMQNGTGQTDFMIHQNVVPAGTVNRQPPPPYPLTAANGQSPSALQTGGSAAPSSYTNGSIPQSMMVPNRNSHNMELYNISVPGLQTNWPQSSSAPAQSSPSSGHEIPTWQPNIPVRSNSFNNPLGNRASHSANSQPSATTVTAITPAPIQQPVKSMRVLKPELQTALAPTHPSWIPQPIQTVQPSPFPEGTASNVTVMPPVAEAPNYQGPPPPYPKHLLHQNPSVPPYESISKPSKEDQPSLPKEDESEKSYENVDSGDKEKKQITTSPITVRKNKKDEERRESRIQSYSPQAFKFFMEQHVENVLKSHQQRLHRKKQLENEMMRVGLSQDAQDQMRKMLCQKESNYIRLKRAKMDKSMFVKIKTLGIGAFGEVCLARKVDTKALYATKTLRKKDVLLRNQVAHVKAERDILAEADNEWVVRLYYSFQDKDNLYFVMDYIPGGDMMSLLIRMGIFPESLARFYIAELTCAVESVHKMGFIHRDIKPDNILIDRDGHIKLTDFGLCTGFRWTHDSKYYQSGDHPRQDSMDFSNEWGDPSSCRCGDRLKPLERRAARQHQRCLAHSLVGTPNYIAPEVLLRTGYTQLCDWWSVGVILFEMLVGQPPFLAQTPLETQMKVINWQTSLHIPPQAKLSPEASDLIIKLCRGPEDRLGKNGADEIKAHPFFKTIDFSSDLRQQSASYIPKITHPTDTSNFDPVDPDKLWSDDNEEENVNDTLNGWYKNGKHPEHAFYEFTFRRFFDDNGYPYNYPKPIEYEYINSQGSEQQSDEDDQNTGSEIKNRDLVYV

Adenosine receptor A2a = Adenosine receptor A2a (Homo sapiens, UniProt P29274); assay: Selectivity interaction (Panel of non-epigenetic targets (kinases, GPCRs, ion channels, and transporters, Eurofins) ) EUB0000271b ADORA2A; conditions: at 1 µM
[3] = molecular target: T2, Dual specificity mitogen-activated protein kinase kinase 7 (Homo sapiens) (UniProt O14733); assay: Selectivity interaction (Kinase screening (Nanosyn)) EUB0000604a MAP2K7
T2 sequence (whole entry): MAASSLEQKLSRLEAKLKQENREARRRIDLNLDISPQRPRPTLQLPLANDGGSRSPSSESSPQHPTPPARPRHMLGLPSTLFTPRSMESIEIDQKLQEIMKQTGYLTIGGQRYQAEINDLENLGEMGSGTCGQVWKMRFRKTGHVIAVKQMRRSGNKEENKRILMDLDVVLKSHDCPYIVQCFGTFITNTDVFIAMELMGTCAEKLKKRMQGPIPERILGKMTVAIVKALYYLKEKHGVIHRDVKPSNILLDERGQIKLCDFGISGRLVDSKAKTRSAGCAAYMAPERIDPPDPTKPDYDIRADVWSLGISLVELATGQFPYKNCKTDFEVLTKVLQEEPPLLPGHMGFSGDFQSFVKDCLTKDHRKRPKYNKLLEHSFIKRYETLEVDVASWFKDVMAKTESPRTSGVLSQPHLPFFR

[4] = molecular target: Interferon-induced, double-stranded RNA-activated protein kinase (Homo sapiens) (UniProt P19525); assay: Selectivity interaction (ActivX KiNativ screen (ex vivo kinase selectivity in human PBMCs)) EUB0001619a EIF2AK2; assay type: cell-based; conditions: PBMC, at 1 µM
[5] = molecular target: Tyrosine-protein kinase Srms (Homo sapiens) (UniProt Q9H3Y6); assay: Selectivity interaction (KinomeScan (DiscoverX)) EUB0000618a SRMS; conditions: at 10 µM
[6] = molecular target: Ribosomal protein S6 kinase alpha-1 (Homo sapiens, UniProt Q15418); assay: Selectivity interaction (Kinase panel (Invitrogen)) EUB0000639a RPS6KA1; conditions: at 200 nM
Activated CDC42 kinase 1 = Activated CDC42 kinase 1 (Homo sapiens, UniProt Q07912); assay: Selectivity interaction (ActivX KiNativ screen (kinase selectivity in THP-1 cell lysates)) EUB0000639a TNK2; assay type: subcellular; conditions: lysate
[7] = molecular target: Casein kinase I isoform epsilon (Homo sapiens, UniProt P49674); assay: Selectivity interaction (Ambit KINOMEscan and KiNATiv profiling in Jurkat cells) EUB0000090b CSNK1E; assay type: cell-based; conditions: at 1 µM
Sequence of Casein kinase I isoform epsilon (P49674 whole entry, looked up, canonical isoform): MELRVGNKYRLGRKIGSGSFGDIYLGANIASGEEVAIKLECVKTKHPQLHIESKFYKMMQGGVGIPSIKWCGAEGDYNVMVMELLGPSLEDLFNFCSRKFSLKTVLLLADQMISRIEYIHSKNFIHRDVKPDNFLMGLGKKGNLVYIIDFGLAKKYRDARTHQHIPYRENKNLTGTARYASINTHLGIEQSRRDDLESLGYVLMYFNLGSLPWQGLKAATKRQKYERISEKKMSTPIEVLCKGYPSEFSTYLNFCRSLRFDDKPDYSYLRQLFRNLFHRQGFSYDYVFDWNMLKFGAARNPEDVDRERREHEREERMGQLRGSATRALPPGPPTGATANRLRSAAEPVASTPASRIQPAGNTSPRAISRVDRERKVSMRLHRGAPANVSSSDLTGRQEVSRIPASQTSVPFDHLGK

Sequence of Activated CDC42 kinase 1 (Q07912 whole entry, looked up, canonical isoform): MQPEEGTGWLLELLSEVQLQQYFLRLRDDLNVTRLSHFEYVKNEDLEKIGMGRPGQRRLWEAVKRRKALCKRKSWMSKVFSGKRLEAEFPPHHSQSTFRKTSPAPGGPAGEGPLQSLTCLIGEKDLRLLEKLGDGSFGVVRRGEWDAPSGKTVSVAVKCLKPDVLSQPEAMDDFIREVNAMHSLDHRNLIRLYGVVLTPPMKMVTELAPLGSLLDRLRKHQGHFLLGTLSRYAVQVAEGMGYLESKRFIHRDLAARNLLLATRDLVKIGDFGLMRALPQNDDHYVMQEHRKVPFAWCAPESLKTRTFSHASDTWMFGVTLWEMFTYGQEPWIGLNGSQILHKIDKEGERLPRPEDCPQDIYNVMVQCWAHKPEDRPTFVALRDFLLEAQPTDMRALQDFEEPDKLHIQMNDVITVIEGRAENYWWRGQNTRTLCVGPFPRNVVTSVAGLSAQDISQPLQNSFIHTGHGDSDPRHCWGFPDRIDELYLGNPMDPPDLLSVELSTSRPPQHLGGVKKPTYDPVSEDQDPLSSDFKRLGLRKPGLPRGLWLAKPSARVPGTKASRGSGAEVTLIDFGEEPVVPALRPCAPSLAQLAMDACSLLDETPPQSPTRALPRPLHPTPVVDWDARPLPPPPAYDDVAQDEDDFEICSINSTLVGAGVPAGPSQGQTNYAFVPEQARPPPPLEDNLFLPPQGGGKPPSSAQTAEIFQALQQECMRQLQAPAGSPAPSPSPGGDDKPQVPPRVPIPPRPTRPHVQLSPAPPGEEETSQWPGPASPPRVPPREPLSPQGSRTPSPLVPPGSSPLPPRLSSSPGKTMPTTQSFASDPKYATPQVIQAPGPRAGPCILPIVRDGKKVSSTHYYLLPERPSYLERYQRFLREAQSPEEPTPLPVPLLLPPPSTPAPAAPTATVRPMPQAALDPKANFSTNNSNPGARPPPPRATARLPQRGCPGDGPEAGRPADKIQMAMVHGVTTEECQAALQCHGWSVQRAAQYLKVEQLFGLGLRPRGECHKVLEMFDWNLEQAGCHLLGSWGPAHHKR
Sequence of Tyrosine-protein kinase JAK1 (P23458 whole entry): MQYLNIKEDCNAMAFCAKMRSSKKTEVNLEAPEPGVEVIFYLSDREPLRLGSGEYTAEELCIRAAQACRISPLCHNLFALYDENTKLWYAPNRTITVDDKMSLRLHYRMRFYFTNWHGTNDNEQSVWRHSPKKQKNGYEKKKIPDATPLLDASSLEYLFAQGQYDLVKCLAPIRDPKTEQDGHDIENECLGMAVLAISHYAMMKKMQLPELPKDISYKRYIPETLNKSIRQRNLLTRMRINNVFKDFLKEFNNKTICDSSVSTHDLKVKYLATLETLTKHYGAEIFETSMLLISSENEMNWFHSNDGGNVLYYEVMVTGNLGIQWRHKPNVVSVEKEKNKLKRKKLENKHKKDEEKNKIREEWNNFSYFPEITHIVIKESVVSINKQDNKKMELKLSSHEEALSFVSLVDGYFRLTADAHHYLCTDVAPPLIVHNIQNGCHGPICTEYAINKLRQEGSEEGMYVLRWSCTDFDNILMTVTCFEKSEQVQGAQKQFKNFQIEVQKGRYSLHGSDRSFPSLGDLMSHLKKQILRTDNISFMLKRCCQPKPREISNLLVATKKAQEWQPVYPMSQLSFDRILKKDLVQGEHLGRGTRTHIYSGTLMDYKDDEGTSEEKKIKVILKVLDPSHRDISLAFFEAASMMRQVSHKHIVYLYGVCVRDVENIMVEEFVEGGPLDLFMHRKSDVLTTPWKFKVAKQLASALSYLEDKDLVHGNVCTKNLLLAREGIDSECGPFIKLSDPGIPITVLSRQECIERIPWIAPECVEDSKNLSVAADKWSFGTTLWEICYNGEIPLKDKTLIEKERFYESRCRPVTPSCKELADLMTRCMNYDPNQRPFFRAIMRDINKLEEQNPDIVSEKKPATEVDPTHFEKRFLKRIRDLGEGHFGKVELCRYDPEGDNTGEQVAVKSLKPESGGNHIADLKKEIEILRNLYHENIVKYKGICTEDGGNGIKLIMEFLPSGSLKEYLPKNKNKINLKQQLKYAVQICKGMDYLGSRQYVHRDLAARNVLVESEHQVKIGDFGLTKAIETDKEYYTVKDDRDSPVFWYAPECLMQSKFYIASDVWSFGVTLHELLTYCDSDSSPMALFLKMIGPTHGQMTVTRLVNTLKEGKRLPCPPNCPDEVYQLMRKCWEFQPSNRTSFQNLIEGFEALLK
Sequence of Ribosomal protein S6 kinase alpha-1 (Q15418 whole entry): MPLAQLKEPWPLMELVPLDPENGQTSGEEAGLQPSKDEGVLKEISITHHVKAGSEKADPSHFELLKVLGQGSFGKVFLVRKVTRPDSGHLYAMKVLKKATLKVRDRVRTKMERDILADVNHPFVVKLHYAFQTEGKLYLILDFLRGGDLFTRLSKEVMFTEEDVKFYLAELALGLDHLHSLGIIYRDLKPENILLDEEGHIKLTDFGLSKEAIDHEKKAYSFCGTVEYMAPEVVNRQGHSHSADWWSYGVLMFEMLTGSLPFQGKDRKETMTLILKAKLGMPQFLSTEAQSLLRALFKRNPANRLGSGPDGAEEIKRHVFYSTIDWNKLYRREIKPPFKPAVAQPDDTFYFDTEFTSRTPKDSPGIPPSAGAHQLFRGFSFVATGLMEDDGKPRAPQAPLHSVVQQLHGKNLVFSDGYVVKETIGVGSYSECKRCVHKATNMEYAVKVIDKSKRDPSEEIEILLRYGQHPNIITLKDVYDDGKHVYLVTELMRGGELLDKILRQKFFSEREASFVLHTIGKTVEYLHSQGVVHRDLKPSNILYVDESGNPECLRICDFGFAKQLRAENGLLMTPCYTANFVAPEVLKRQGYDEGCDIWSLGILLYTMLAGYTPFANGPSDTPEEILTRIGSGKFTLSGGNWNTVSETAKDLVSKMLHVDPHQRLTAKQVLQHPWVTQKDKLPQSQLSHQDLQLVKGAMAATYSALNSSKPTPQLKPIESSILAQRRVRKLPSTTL
Sequence of Adenosine receptor A2a (P29274 whole entry): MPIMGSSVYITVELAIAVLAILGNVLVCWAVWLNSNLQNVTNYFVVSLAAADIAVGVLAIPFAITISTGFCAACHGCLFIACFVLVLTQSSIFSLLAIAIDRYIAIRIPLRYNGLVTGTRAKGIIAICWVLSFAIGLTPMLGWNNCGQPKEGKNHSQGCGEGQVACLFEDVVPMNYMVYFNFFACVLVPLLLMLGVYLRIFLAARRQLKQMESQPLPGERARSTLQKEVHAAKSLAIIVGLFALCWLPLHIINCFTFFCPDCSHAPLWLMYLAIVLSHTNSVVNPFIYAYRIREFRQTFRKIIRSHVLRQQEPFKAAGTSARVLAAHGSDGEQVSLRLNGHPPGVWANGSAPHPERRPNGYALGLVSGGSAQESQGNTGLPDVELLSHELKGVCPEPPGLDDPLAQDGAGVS
Sequence of Interferon-induced, double-stranded RNA-activated protein kinase (Homo sapiens) (P19525 whole entry): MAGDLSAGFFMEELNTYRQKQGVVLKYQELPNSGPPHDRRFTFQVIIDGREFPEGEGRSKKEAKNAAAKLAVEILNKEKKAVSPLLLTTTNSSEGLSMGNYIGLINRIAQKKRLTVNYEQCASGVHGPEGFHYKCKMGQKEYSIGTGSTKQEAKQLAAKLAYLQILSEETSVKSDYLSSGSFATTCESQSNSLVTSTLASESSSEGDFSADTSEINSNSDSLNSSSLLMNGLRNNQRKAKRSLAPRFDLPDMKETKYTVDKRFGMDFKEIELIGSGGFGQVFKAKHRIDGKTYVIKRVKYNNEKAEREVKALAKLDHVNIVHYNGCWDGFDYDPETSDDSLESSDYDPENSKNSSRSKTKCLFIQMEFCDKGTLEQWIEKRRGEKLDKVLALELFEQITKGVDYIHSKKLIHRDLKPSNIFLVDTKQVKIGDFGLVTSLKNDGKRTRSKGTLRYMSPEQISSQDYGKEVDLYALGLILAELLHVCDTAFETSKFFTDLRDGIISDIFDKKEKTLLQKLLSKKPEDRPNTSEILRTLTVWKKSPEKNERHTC
Sequence of Tyrosine-protein kinase Srms (Homo sapiens) (Q9H3Y6 whole entry): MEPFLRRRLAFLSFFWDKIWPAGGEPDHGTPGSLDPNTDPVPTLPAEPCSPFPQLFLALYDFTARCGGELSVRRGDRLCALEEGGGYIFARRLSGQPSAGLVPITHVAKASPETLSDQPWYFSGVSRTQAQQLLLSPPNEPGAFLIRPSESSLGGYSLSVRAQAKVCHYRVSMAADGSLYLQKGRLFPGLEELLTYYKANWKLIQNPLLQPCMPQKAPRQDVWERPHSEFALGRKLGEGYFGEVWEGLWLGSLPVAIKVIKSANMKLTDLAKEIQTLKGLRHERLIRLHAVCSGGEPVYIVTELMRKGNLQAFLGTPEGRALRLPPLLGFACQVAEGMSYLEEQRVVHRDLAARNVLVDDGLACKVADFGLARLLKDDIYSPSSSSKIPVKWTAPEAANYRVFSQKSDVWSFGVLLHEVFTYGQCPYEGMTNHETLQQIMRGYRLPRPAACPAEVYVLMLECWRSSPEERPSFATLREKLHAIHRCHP

O=C(NOC[C@H](O)CO)c1ccc(F)c(F)c1Nc1ccc(I)cc1F
% of control [1]: 100% | % of control [2]: 100%

Cc1cc(C)cc([C@@H]2c3cc(C)ccc3NC(=O)CN2C(=O)c2ccc(Br)s2)c1
% of inhibition (Adenosine receptor A2a): 2%

Cc1cnc(Nc2ccc(F)cc2Cl)nc1-c1c[nH]c(C(=O)N[C@H](CO)c2cccc(Cl)c2)c1
% of inhibition [3]: 6%

N#Cc1cccc(-c2c[nH]c3ncnc(N4CCOCC4)c23)c1
% of inhibition [4]: 7%

O[C@H]1CC[C@H](Nc2ncc3nc(Nc4c(F)cc(F)cc4F)n([C@H]4CCOC4)c3n2)CC1
% of control [5]: 89%

CC[C@@H]1[C@H](F)C(=O)N[C@@H]1COc1nccc2cc(C(N)=O)c(OC)cc12 [ZIMLOVISERTIB]
% of inhibition [6]: 2.83% | % of inhibition (Activated CDC42 kinase 1; at 0.01 µM): 1.7% | % of inhibition (Activated CDC42 kinase 1; at 0.04 µM): -15.5% | % of inhibition (Activated CDC42 kinase 1; at 0.2 µM): -11.3% | % of inhibition (Activated CDC42 kinase 1; at 1 µM): -19.1% | % of inhibition (Activated CDC42 kinase 1; at 5 µM): -20.6%

CN(C)C/C=C/C(=O)Nc1ccc(C(=O)N2CCCC(Nc3ncc(Cl)c(-c4c[nH]c5ccccc45)n3)C2)cc1 (stereo not drawn)
% of control [7]: 80%
